Results reported in patent US5932217A, “Peptides which inhibit adhesion between leukocytes and endothelial cells” (priority 1994, dated 1999).

Experiments:
[1] = system: THP-1 cells; assay: Generation of Factor Xa by monocytes; assay type: cell-based; conditions: peptides 0.5 mM
Procedure: Factor Xa generation was determined by a modification of the method of Miletich et al. (1978), J. Biol. Chem. 253: 6908-6916. THP-1 cells (ATCC; 3×10^7 /ml) resuspended in RPMI 1640 (Bio Whittaker, Walkersville, Md.) were incubated with 100 μM ADP (Sigma), 2.5 mM CaCl2, 1 or 5 μg/ml Factor X (Hematologic Technologies Inc.) and 0.5 mM peptides at room temperature. After 20 minutes, 100 μl of the reaction mixture was transferred to 37° C. and supplemented with 100 μl of bovine factor VII- and Factor X-deficient plasma (Sigma). Coagulation was initiated by adding 100 μl of 25 mM CaCl2 and the clotting time was determined. Factor Xa procoagulant activity (ng/ml) was calculated by means of a standard curve constructed by serial concentrations of Factor Xa (Hematologic Technologies Inc.) from 50 to 250 ng/ml.

[2] = 50% rabbit plasma at 37° C.
Procedure: To determine the stability of the FHA II peptide, the unmodified or the acetylated-amidated peptide were incubated in 50% rabbit plasma at 37° C.

[3] = system: human umbilical vein endothelial cells; assay: Adherence of neutrophils to cultured activated endothelial cells; assay type: cell-based
Procedure: Human umbilical vein endothelial cells (HUVEC, first passage, Clonetics, San Diego, Calif.) were subcultured at confluence into Terasaki tissue culture wells. After 24 hours, confluent monolayers were used for adherence assays. Monolayers were stimulated with 10 ng/ml TNF alpha (Boehringer Mannheim, Indianapolis, Ind.) at 37° C. for four hours. 30 μl of human neutrophils (10^6 /ml) were labeled with fluorescein by the method of Lo et al. (1991), J. Exp. Med. 173 1493-1500, and preincubated for 15 minutes at 37° C. with 20 μl of peptides (0.5 mM in HAP) or HAP (phosphate buffered saline containing 0.5 mg/ml human serum albumin, 3 mM glucose, and 0.3 U/ml aprotinin) as a control buffer. For some experiments, endothelial cells ere pretreated from 10 minutes with Factor X or antibodies against Factor X receptor (EPR-1; Altieri et al. (1990), J. Immunol. 145, 246-253) 12H1 and 9D4 (obtained from Dr. D. Altieri, Scripps Research Institute, LaJolla, Calif.) and then washed. Neutrophils were allowed to adhere to the monolayer for 15 mins. at 37° C. and unbound cells were removed by submersion of the plate in PBS buffer. The number of adherent neutrophils was counted in a 40× microscope field and expressed as a percentage of adherence in control wells with neutrophils treated with HAP buffer alone. The mAb IB4 against CD18 (50 μg/ml; Merck Inc., Rahway, N.J.) served as a positive control.
The ability of FHA peptides and anti-CD18 or anti-Factor X receptor antibodies to interact cooperatively to inhibit neutrophil adherence to endothelial cells was assessed by measuring neutrophil adherence to endothelial cells in the presence of antibody as well as antibody plus peptide. Anti-CD18 mAb IB4 was added to leukocytes at 10 μg/ml 10 min before the assay. Anti-Factor X receptor mAb 12H1 (10 μl of ascites) or 9D4 (10 μg/ml) were added to the endothelial cell monolayers 10 min before the assay. The peptides were added at 5 μg/ml. The results are shown in Table 8 where the numerical values are in % of control binding.
The procedures for determining the neutrophil adherence to cultured endothelial cells and the transendothelial migration of neutrophils were identical with those of Example 9. Control values were the same as those shown in Example 9.

[4] = system: Human neutrophils; assay: Binding of 125I-Factor X to neutrophils
Procedure: Human Factor X (Sigma or Hematologic Technologies Inc.) was labeled with ^125 I using Iodogen (Pierce Chemical Co.) Human neutrophils were isolated from heparinized blood according to the manufacturer's specification using Neutrophil Isolation Medium (Cardinal Associates, Santa Fe, N.M.) and washed three times with 5 mM EDTA-phosphate-buffered saline (PBS), pH 7.2, at 4° C. To eliminate platelet contamination,neutrophils were incubated with autologous serum containing 5 mM EDTA for 30 mins. at 37° C., washed three times with ice-cold PBS, pH 7.2, and resuspended in RPMI 1640 tissue culture medium (Whittaker M. A. Bioproducts, Walkersville, Md.) at 4° C. Binding of ^125 I-Factor X to neutrophils was measured based on a method described by Altieri et al. (1991) Science 254: 1200-1202. Briefly, 200 μl of neutrophils (1.5×10^7 /ml) were supplemented with 17.5 μl of 50 mM CaCl2, stimulated with 3.5 μl of 100 μM NH2 -formyl-Met-Leu-Phe (Sigma), and mixed with 30 μl of 10.3 μg/ml ^125 I-Factor X and 100 μl of 1.75 mM of peptide. Buffer alone and a peptide of scrambled sequence served as controls in each of the 3 experiments. After incubation for 20 mins. at room temperature, neutrophil-bound ^125 I-Factor X was separated from unbound ^125 I-Factor X by centrifugation of 300 μl aliquots through 50 μl of a mixture of Hi phenyl silicone oil DC 550 and methyl silicone oil DC 200 5:1 (Nye Inc. Specialty Lubricants, New Bedford, Mass.) at 12,000×g for 2 mins. Aliquots of the supernatant (cell free ^125 I-Factor X) and the cell pellet (cell bound ^125 I-Factor X) were counted in a gamma-counter. Nonspecific binding (~50,000 cpm) was determined by adding a 100 fold excess of unlabeled Factor X, and subtracted from total radioactivity (~500,000 cpm for controls).

[5] = system: Recognition of C3bi by 12.1F9; assay: Peptide inhibition of recognition of C3bi by 12.1F9; assay type: binding

Row | Substance | Clotting time [1] [s] | Factor Xa ([1]; from standard curve) [ng/mL] | concentration over time in plasma [2] | inhibition of neutrophil adherence to stimulated HUVEC, comparison in words ([3]; peptides 0.5 mM, FIG. 17) | inhibition of 125I-Factor X binding to neutrophils ([4]; peptides 0.5 mM, native FHA 0.3 μM, mAb IB4 100 μg/ml) [%] | IC50 ([4]; read-out: IC50 of inhibition of 125I-Factor X binding) [nM] | concentration at which loss of activity (≤20% inhibition) occurred [3] | maximal inhibition of neutrophil attachment ([3]; FIG. 25B) | inhibition of adherence of human neutrophils to cultured endothelial cells ([3]; Native FHA 50 ug/ml (0.2 uM), FHA peptide C 1 mg/ml (0.2 mM)) [%] | reduction of neutrophil adherence to stimulated HUVEC ([3]; native FHA 25 μg/ml=0.3 μM, mAb IB4 50 μg/ml) [%] | block of binding of 12.1F9 to C3bi [5] | Adherence index ([5]; peptides 50 μg/ml, normalized to a control value of 100)
1 | Ac-ETKEVDG-NH2 [Acetyl/Amide-FHA II] | 40.0 ± 3.0 | 28.5 | remained unchanged over 48 hours | significantly enhanced | – | – | – | – | – | – | – | –
2 | Filamentous hemagglutinin [native FHA] | – | – | – | – | 70±4 | 100 | 10^-3 μM | ~ 50% | 51±7 | 51±8 | blocked binding almost completely | 16 ± 16
